From US20110225663A1, “METHOD FOR PRODUCING EUKARYOTIC ORGANISMS WITH ENHANCED PATHOGEN RESISTANCE AND/OR RESISTANCE TO STRESS AND EUKARYOTIC TRANSGENIC ORGANISMS WITH ENHANCED PATHOGEN RESISTANCE AND/OR RESISTANCE TO STRESS” (WESTFAELISCHE WILHELMS-UNIVERSITAET MUENSTER, priority 2008, published 2011)

How the values were obtained:
[1] = target: Arabidopsis thaliana glucose-6-phosphate dehydrogenase isoform At1g24280 (P2 class), N-terminally truncated without transit peptide (cP2, 5′ delta 195 bp) (Arabidopsis thaliana, UniProt Q8L743); assay: biochemical
Chain of Arabidopsis thaliana glucose-6-phosphate dehydrogenase isoform At1g24280 (P2 class), N-terminally truncated without transit peptide (cP2, 5′ delta 195 bp) (Q8L743 67-599): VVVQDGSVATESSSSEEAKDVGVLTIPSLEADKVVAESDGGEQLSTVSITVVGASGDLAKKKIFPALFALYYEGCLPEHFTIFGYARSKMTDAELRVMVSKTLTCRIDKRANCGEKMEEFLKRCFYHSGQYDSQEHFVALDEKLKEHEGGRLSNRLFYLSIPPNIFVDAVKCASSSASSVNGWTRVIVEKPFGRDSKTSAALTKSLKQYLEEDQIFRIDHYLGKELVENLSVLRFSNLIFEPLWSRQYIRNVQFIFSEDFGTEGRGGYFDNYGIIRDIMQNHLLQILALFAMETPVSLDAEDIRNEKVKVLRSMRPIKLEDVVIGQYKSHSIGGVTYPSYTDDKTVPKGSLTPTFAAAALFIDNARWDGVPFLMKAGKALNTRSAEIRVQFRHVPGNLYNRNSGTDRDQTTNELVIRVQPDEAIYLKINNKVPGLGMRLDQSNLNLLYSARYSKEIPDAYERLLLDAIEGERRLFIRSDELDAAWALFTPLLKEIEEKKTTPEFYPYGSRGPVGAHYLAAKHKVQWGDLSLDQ

[2] = target: Arabidopsis glucose-6-phosphate dehydrogenase P2 (At1g24280), recombinant enzyme with C-terminal Strep-tag; details: cited from earlier work
NADPH oxidase = test system: NADPH oxidase
Source text: This leads to the formation of hypersensitive lesions in leaf tissue of resistant varieties after pathogen infection (incompatible interaction).

G6PDH = assay: Inhibitor study with Glucosamine-6-P in tobacco leaves infected with P. nicotianae; format: in vivo
Source text: The involvement of the oxidative pentose phosphate pathway (OPPP) in the oxidative burst of plants was shown by inhibitor studies with Glucosamine-6 phosphate (Glucosamine-6-P). This is a well-known competitive inhibitor for G6PDH (as described in Glaser B L and Brown D H: Purification and properties of D-glucose 6-phosphate dehydrogenase, J Biol Chem 216, pp 67-79 (1955)), the first enzyme of the OPPP, which transforms G6P into 6-phosphogluconolactone.
Hydrogen peroxide (H2O2) accumulation was detected by in situ staining with 3,3-diaminobenzidine (DAB) following a modified protocol of Thordal-Christensen H, Zhang Z G, Wei Y D, Collinge D B: Subcellular localization of H2O2 in plants: H2O2 accumulation in papillae and hypersensitive response during the barley-powdery mildew interaction, Plant J 11, pp 1187-1194 (1997). Leaves were placed in DAB solution (1 mg mL^−1, pH 3.8) for 6 h. A dark-brown polymerization product formed at sites where DAB reacts with H2O2 produced by the tissue. Incubations were stopped and leaf tissue was simultaneously cleared from chlorophyll by boiling in ethanol for 10 min.

[3] = FIG. 2 bottom, infiltrated tobacco leaf

Compound: NC(=O)C1=CN([C@@H]2O[C@H](COP(=O)(O)OP(=O)(O)OC[C@H]3O[C@@H](n4cnc5c(N)ncnc54)[C@H](OP(=O)(O)O)[C@@H]3O)[C@@H](O)[C@H]2O)C=CC1 [NADPH, nicotinamide-dinucleotide phosphate, reduced form]
- Ki [1]: 4.6 µM
- Ki ([2]; Wakao and Benning (2005), read-out: Ki[NADPH]): 22 µM

Compound: NC(=O)c1ccc[n+]([C@@H]2O[C@H](COP(=O)(O)OP(=O)(O)OC[C@H]3O[C@@H](n4cnc5c(N)ncnc54)[C@H](OP(=O)(O)O)[C@@H]3O)[C@@H](O)[C@H]2O)c1 [NADP+, nicotinamide-dinucleotide phosphate, oxidized form]
- Km ([2]; read-out: Km[NADP+], Wakao and Benning (2005)): 17 µM

Compound: c1ccc2c(c1)[I+]c1ccccc1-2 [DPI, diphenylene iodonium]
- defence-induced H2O2 production (DAB-staining) and formation of hypersensitive lesions (NADPH oxidase; [3]): Interference
- formation of hypersensitive lesions after infection with P. nicotianae (NADPH oxidase; tobacco leaves treated with 25-100 mM DPI): did not induce the formation of hypersensitive lesions

Compound: N[C@@H]1[C@@H](O)[C@H](O)[C@@H](COP(=O)(O)O)O[C@@H]1O [GN6P, Glucosamine-6 phosphate]
- defence-induced H2O2 production (DAB-staining) and formation of hypersensitive lesions (G6PDH; [3]): Interference
- ROS production after infection with P. nicotianae (G6PDH; tobacco leaves treated with 25-50 mM GN6P): did not result in detectable ROS production
